We go through 15 molecules from patent US8580965B2, “Substituted sulfonamide compounds” (Gruenenthal GmbH, priority 2006, dated 2013).

The target of test [1] is T1, B1R receptor of the rat (bradykinin 1 receptor) (Rattus norvegicus, UniProt P97583).
T1 construct: host or cells: CHO K1 cells (rB1R cells)
T1 sequence (P97583 1-337): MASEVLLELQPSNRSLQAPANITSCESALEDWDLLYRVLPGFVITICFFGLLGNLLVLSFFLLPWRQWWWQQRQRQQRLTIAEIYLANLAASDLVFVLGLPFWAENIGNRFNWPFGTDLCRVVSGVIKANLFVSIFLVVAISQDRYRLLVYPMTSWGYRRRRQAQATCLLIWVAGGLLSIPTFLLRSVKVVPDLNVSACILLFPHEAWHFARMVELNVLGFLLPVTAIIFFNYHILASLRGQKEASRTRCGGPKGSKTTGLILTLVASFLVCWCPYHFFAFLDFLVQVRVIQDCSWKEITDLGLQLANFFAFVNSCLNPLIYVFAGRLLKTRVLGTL
The test can be described thus: FLIPR Ca2+ assay (Fluo-4) on CHO K1 cells stably transfected with the B1R gene of the rat; % activation and % inhibition at 10 μM. Format: cell-based. The note with it: CHO-K1, test substance 10 μM; CHO K1 rB1R cells; Ca2+ inflow after 100 nM Des-Arg9-bradykinin; read-out: B1R antagonism, rat [10 μM] % inhibition. How it is done: (§1) The agonistic or antagonistic action of substances can be quantified on the bradykinin receptor 1 (B1R) of the species human and rat with ectopically expressing cell lines (CHO K1 cells) and with the aid of a Ca^2+-sensitive dye (Fluo-4) using a fluorescent imaging plate reader (FLIPR). The indication in % activation is based on the Ca^2+ signal after addition of Lys-Des-Arg^9-bradykinin (0.5 nM) or Des-Arg^9-bradykinin (100 nM). Antagonists result in a suppression of the Ca^2+ influx following administration of the agonist. The % inhibition in comparison with the maximum achievable inhibition is indicated.
(§2) Functional Investigation on the Bradykinin 1 Receptor (B1R)
(§3) The agonistic or antagonistic action of substances can be determined on the bradykinin 1 receptor (B1R) of the human and rat species with the following assay. According to this assay, the Ca^2+ inflow through the channel is quantified with the aid of a Ca^2+-sensitive dyes (Fluo-4 type, Molecular Probes Europe BV, Leiden, The Netherlands) in a fluorescent imaging plate reader (FLIPR, Molecular Devices, Sunnyvale, USA).
(§4) Chinese Hamster Ovary cells (CHO K1 cells) which are stably transfected with the human B1R gene (hB1R cells, Euroscreen s.a., Gosselies, Belgium) or the B1R gene of the rat (rB1R cells, Axxam, Milan, Italy) are used. For functional investigations, these cells are plated-out on black 96-well plates with a clear base (BD Biosciences, Heidelberg, Germany) in a density of 20,000-25,000 cells/well. Overnight, the cells are incubated at 37° C. and 5% CO2 in culture medium (hB1R cells: Nutrient Mixture Ham's F12, Gibco Invitrogen GmbH, Karlsruhe, Germany; rB1R cells: D-MEM/F12, Gibco Invitrogen, Karlsruhe, Germany) with 10 vol. % FBS (foetal bovine serum, Gibco Invitrogen GmbH, Karlsruhe, Germany). On the following day, the cells are loaded with 2.13 μM Fluo-4 (Molecular Probes Europe BV, Leiden, The Netherlands) in HBSS buffer (Hank's buffered saline solution, Gibco Invitrogen GmbH, Karlsruhe, Germany) […] (Sigma-Aldrich, Taufkirchen, Germany) and 10 mM HEPES (Sigma-Aldrich, Taufkirchen, Germany) for 60 min at 37° C. The plates are subsequently washed 2× with HBSS buffer, and HBSS buffer which additionally contains 0.1% BSA (bovine serum albumin; Sigma-Aldrich, Taufkirchen, Germany), 5.6 mM glucose and 0.05% gelatine (Merck KGaA, Darmstadt, Germany) is added. After a further incubation of 20 minutes at room temperature, the plates are inserted into the FLIPR for Ca^2+ measurement. The Ca^2+-dependent fluorescence is measured here before and after addition of substances (λex=488 nm, λem=540 nm). The quantification is effected by measurement of the highest fluorescence intensity (FC, fluorescence counts) over time.
(§5) The FLIPR protocol comprises 2 additions of substance. Test substances (10 μM) are first pipetted on to the cells and the Ca^2+ inflow is compared with the control (hB1R: Lys-Des-Arg^9-bradykinin 0.5 nM; rB1R: Des-Arg^9-bradykinin 100 nM). The value in % activation based on the Ca^2+ signal after addition of Lys-Des-Arg^9-bradykinin (0.5 nM) or Des-Arg^9-bradykinin (100 nM) is obtained therefrom. After incubation for 10 minutes, 0.5 nM Lys-Des-Arg^9-bradykinin (hB1R) or 100 nM Des-Arg^9-bradykinin (rB1R) are applied and the inflow of Ca^2+ is likewise determined. Antagonists lead to a suppression of the Ca^2+ inflow. % inhibition compared with the maximum inhibition which can be achieved is calculated. The compounds show a good activity on the human and on the rat receptor. The following data were determined by way of example: […]

In test [2] the target is T2, human B1R receptor (bradykinin 1 receptor) (Homo sapiens, UniProt P46663).
T2 construct: host or cells: CHO K1 cells (hB1R cells)
T2 sequence (P46663 1-353): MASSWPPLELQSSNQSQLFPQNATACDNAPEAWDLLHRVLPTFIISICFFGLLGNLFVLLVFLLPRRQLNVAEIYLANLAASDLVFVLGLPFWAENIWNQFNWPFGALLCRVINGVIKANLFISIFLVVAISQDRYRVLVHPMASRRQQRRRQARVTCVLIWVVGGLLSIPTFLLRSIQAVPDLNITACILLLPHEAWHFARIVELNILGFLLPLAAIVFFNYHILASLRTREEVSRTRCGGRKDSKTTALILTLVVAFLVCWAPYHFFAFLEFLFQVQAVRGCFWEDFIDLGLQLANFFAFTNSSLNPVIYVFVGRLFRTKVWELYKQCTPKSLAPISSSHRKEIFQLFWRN
The test can be described thus: FLIPR Ca2+ assay (Fluo-4) on CHO K1 cells stably transfected with the human B1R gene; % activation and % inhibition at 10 μM. The note with it: CHO-K1, test substance 10 μM; CHO K1 hB1R cells; Ca2+ inflow after 0.5 nM Lys-Des-Arg9-bradykinin; read-out: B1R antagonism, human [10 μM] % inhibition. Format: cell-based. How it is done: as §1, §2, §3, §4, §5

As a reminder, the inhibition is the drop in the measured response relative to a control, in per cent.

For the molecule `COc1cc(C)c(S(=O)(=O)N2Cc3ccccc3CC2COCC(=O)N2CCC(O)(c3cccc(C(F)(F)F)c3)CC2)c(C)c1C` (stereo not drawn) [Example 233, 1-(4-hydroxy-4-(3-(trifluoromethyl)phenyl)piperidin-1-yl)-2-((2-(4-methoxy-2,3,6-trimethylphenylsulfonyl)-1,2,3,4-tetrahydroisoquinolin-3-yl)methoxy)ethanone], the inhibition at 10 µM in test [1] was 70.2%; in test [2], 38.9%.

`CN(CCOCC(=O)N1CCC(O)(c2ccccn2)CC1)S(=O)(=O)c1c(Cl)cccc1Cl` [Example 10, 2,6-dichloro-N-{2-[2-(4′-hydroxy-3′,4′,5′,6′-tetrahydro-2′H-[2,4′]bipyridinyl-1′-yl)-2-oxo-ethoxy]-ethyl}-N-methyl-phenylsulfonamide]: the inhibition at 10 µM was determined as 73.6% in test [1] and 90.3% in test [2]. The corresponding values for `COc1cc(C)c(S(=O)(=O)N(CCOCC(=O)N2CCC(O)(c3ccc(Br)cc3)CC2)CC(C)C)c(C)c1C` [Example 210, N-(2-(2-(4-(4-bromophenyl)-4-hydroxypiperidin-1-yl)-2-oxoethoxy)ethyl)-N-isobutyl-4-methoxy-2,3,6-trimethylphenylsulfonamide] are 101% and 105%. The corresponding values for `O=C(COC[C@@H]1Cc2ccccc2CN1S(=O)(=O)c1ccc(Cl)cc1Cl)N1CCC(O)(c2cccnc2)CC1` [Example 129, (S)-2-((2-(2,4-dichlorophenylsulfonyl)-1,2,3,4-tetrahydroisoquinolin-3-yl)methoxy)-1-(4-hydroxy-4-(pyridin-3-yl)piperidin-1-yl)ethanone] are 97.3% and 103%.

Regarding `O=C(COCC1Cc2ccccc2CN1S(=O)(=O)c1ccc(Cl)c(Cl)c1)N1CCC(O)(c2cccnc2)CC1` (stereo not drawn) [Example 91, 2-[2-(3,4-dichloro-phenylsulfonyl)-1,2,3,4-tetrahydro-isoquinolin-3-ylmethoxy]-1-(4′-hydroxy-3′,4′,5′,6′-tetrahydro-2′H-[3,4′]bipyridinyl-1′-yl)-ethanone], the inhibition at 10 µM in test [1] and in test [2] was 93.7% throughout. Consider `O=C(COC1CCN(S(=O)(=O)c2ccccc2)C1)N1CCC(O)(c2ccccn2)CC1` (stereo not drawn) [Example 34, 2-(1-phenylsulfonyl-pyrrolidin-3-yloxy)-1-(4′-hydroxy-3′,4′,5′,6′-tetrahydro-2′H-[2,4′]bipyridinyl-1′-yl)-ethanone], for which the inhibition at 10 µM in test [1] was determined as 40.3%; in test [2] it was 5.93%. As to `O=C(COCC1CCc2ccccc2N1S(=O)(=O)c1ccc(Cl)c(Cl)c1)N1CCC(O)(c2ccncc2)CC1` (stereo not drawn) [Example 147, 2-((1-(3,4-dichlorophenylsulfonyl)-1,2,3,4-tetrahydroquinolin-2-yl)methoxy)-1-(4-hydroxy-4-(pyridin-4-yl)piperidin-1-yl)ethanone], the inhibition at 10 µM in test [1] was 93.3%; in test [2], 53.9%. Take `COc1cc(C)c(S(=O)(=O)N2CCCC(COCC(=O)N3CCC(O)(c4ccc(Cl)c(C(F)(F)F)c4)CC3)C2)c(C)c1` (stereo not drawn) [Example 253, 1-(4-(4-chloro-3-(trifluoromethyl)phenyl)-4-hydroxypiperidin-1-yl)-2-((1-(4-methoxy-2,6-dimethylphenylsulfonyl)piperidin-3-yl)methoxy)ethanone]: in test [1], the inhibition at 10 µM turned out to be 79.9%. Consider `COc1cc(C)c(S(=O)(=O)N(CCOCC(=O)N2CCC(O)(c3cccnc3)CC2)C2CC2)c(C)c1` [Example 139, N-cyclopropyl-N-(2-(2-(4-hydroxy-4-(pyridin-3-yl)piperidin-1-yl)-2-oxoethoxy)ethyl)-4-methoxy-2,6-dimethylphenylsulfonamide], for which the results for the inhibition at 10 µM in test [1] and in test [2] were 101% and 104%, respectively.

Turning to `CN(CCOCC(=O)N1CCC(O)(c2cccnc2)CC1)S(=O)(=O)c1c(Cl)cc(Cl)cc1Cl` [Example 2, 2,4,6-trichloro-N-{2-[2-(4′-hydroxy-3′,4′,5′,6′-tetrahydro-2′H-[3,4′]bipyridinyl-1′-yl)-2-oxo-ethoxy]-ethyl}-N-methyl-phenylsulfonamide], the figures for the inhibition at 10 µM in test [1] and in test [2] were 103% and 104%, respectively.

As to `O=C(COCC1CCCCN1S(=O)(=O)c1cc(Cl)sc1Cl)N1CCC(O)(c2ccc(Cl)c(C(F)(F)F)c2)CC1` (stereo not drawn) [Example 247, 1-(4-(4-chloro-3-(trifluoromethyl)phenyl)-4-hydroxypiperidin-1-yl)-2-((1-(2,5-dichlorothiophen-3-ylsulfonyl)piperidin-2-yl)methoxy)ethanone], the inhibition at 10 µM in test [1] was found to be 99.2%. For the molecule `Cc1cc(S(=O)(=O)N2CCCCC2COCC(=O)N2CCC(O)(c3ccc(Cl)c(C(F)(F)F)c3)CC2)c(C)cc1Cl` (stereo not drawn) [Example 160, 2-((1-(4-chloro-2,5-dimethylphenylsulfonyl)piperidin-2-yl)methoxy)-1-(4-(4-chloro-3-(trifluoromethyl)phenyl)-4-hydroxypiperidin-1-yl)ethanone], in test [1], the inhibition at 10 µM was found to be 105%.

For `O=C(COCC1CCc2ccccc2N1S(=O)(=O)c1ccc(Cl)c(Cl)c1)N1CCC(O)(c2cccc(F)c2)CC1` (stereo not drawn) [Example 145, 2-((1-(3,4-dichlorophenylsulfonyl)-1,2,3,4-tetrahydroquinolin-2-yl)methoxy)-1-(4-(3-fluorophenyl)-4-hydroxypiperidin-1-yl)ethanone], the inhibition at 10 µM in test [1] was determined as 77.3%. In the case of `COc1cc(C)c(S(=O)(=O)N2CCCCC2COCCC(=O)N2CCC(O)(Cc3ccccc3)CC2)c(C)c1` (stereo not drawn) [Example 179, 1-(4-benzyl-4-hydroxypiperidin-1-yl)-3-((1-(4-methoxy-2,6-dimethylphenylsulfonyl)piperidin-2-yl)methoxy)propan-1-one], the inhibition at 10 µM in test [2] came to 61.5%. Same read-out and setting: the same measure for `COc1cc(C)c(S(=O)(=O)N2CCC(CCOCC(=O)N3CCC(O)(c4ccccn4)CC3)CC2)c(C)c1C` [Example 45, 1-(4′-hydroxy-3′,4′,5′,6′-tetrahydro-2′H-[2,4′]bipyridinyl-1′-yl)-2-{2-[1-(4-methoxy-2,3,6-trimethyl-phenylsulfonyl)-piperidin-4-yl]-ethoxy}-ethanone]: -2.48%.
